From article PMC6272426, “LC-ESI-MS/MS Analysis and Pharmacokinetics of GP205, an Innovative Potent Macrocyclic Inhibitor of Hepatitis C Virus NS3/4A Protease in Rats” (Molecules, 2015)
Like-named read-outs stand apart in the source and are kept apart here. Blank lines part the entries; values can stand above or below the compound they belong to.

Columns and labels:
[1] = parameters: method as in PMID 15732092; settings: rhesus monkeys; cited from earlier work
[2] = molecular target: NS3 enzyme, genotype 1b HCV (HCV NS3/4A protease) (Hepatitis C virus genotype 1b, UniProt Q9WMX2); test: biochemical
Sequence of NS3 enzyme, genotype 1b HCV (HCV NS3/4A protease) (Q9WMX2 1027-1657): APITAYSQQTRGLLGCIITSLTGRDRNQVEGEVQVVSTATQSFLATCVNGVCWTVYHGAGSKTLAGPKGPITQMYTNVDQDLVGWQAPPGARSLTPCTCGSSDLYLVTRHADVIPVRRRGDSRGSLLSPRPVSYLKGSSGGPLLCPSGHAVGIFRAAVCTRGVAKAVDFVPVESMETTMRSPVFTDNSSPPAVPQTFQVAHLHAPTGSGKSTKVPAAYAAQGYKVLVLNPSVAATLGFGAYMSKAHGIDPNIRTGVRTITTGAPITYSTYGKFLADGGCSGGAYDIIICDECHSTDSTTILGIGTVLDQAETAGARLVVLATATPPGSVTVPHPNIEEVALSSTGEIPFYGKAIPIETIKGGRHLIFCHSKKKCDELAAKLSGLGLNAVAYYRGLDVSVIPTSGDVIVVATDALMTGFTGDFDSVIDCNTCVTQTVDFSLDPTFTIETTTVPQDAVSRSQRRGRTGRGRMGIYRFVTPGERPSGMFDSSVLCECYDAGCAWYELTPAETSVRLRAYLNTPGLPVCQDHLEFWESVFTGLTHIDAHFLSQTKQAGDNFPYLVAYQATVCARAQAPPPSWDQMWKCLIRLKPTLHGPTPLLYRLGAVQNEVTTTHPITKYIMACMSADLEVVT
Sequence of NS3 enzyme, genotype 1b HCV (HCV NS3/4A protease) (Q9WMX2 1658-1711): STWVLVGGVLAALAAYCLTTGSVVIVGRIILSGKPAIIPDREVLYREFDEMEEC

[3] = assay type: physicochemical; settings: Stock solution
Experimental: [table] Stock solutions of GP205 were prepared by dissolving an accurately weighed amount of reference standard in methanol to yield a final concentration of 1 mg/mL. The solutions were sonicated for 5 min to ensure complete dissolution. Then the solutions were allowed to equilibrate to room temperature and diluted to volume with methanol. Working standard solutions of GP205 in the concentration range of 20–50,000 ng/mL were prepared from individual aliquots of 1 mg/mL solution using methanol–water (95:5, v/v) as the diluent. The stock standard solution of IS was prepared by dissolving appropriate amount of paclitaxel in methanol at the concentration of 1 mg/mL. A 1 μg/mL IS working solution was obtained by diluting the stock solution of paclitaxel with methanol–water (95:5, v/v). All the solutions were stored at 4 °C and brought to room temperature before use. Calibration standards were prepared daily by spiking 5 μL of the appropriate standard solutions to 45 μL of the blank SD rat plasma. Plasma concentrations were 2, 5, 10, 50, 100, 200, 500, 2000 and 5000 ng/mL for GP205. QC samples, which were used in the validation and during the pharmacokinetics study, were prepared from different sources by independent dilution at three levels (5, 100, 4000 ng/mL) for GP205. QC samples were aliquoted into 1.5 mL non-sterile Eppendorf tubes and stored at −80 °C until analysis.

[4] = Sprague-Dawley, rat, in vivo, po
Experimental: (§1) The method developed above was applied to a pharmacokinetic study of GP205 to SD rats after single oral doses at 2.5, 5 and 10 mg/kg and an intravenous injection dose at 1 mg/kg.
(§2) Twenty four SD rats (12 males and 12 females), weighing 210 ± 8 g (mean ± SD) were fed with certified standard diet and tap water ad libitum. Temperature and humidity were regulated at 21–23 °C and 30%–60%, respectively. A light/dark cycle of 12 h on/12 h off was established. After 1 week of acclimatization, they were randomly divided into 4 groups (3 males and 3 females for each group). After fasted overnight, three groups of them received oral administration of GP205 at three dosages 2.5 mg/kg, 5 mg/kg, 10 mg/kg dissolved in mixed solvent (5% DMSO, 40% PEG-400, 55% physiological saline), respectively. The other group of them received an intravenous injection of GP205 at 1 mg/kg. […] Blood samples (100 μL) were collected into heparinized tubes before administration and at 0.083, 0.17, 0.33, 0.5, 1, 2, 3, 4, 6, 8, 12, 24, 36, 48 h after oral administration or before administration and at 0, 0.083, 0.17, 0.33, 0.5, 1, 2, 3, 4, 6, 8, 12, 24, 36 , 48 h after intravenous administration. The plasma was separated from heparinized blood by centrifugation at 3500 rpm for 10 min and stored at −80 °C prior to analysis.

[5] = both, Sprague-Dawley, rat, in vivo, iv, 1 mg/kg
Experimental: as §1, §2

[6] = Sprague-Dawley, rat
[7] = in vivo; settings: Sprague-Dawley, rat
Experimental: as §1, §2

[8] = in vivo; settings: both, Sprague-Dawley, rat, iv, 1 mg/kg
Experimental: as §1, §2

[9] = parameters: method as in PMID 24900304; settings: comparison value for MK-1220; cited from earlier work
[10] = 4 °C for 40 days, nominal 5 ng/mL
[11] = 4 °C for 40 days, nominal 100 ng/mL
[12] = 4 °C for 40 days, nominal 4000 ng/mL
[13] = 25 °C for 24 h, nominal 5 ng/mL
[14] = 25 °C for 24 h, nominal 100 ng/mL
[15] = 25 °C for 24 h, nominal 4000 ng/mL

SMILES: COc1ccc2c(O[C@@H]3C[C@H]4C(=O)N[C@]5(C(=O)O)C[C@H]5/C=C\CCCCC[C@H](NC(=O)OC5CCCC5)C(=O)N4C3)cc(-c3csc(NC(C)C)n3)nc2c1 [BILN-2061]
Cardiotoxicity finding [1]: cardiotoxocity identified in rhesus monkeys

SMILES: C=C[C@@H]1C[C@]1(NC(=O)[C@@H]1C[C@@H]2CN1C(=O)[C@H](C1CCCCC1)NC(=O)[C@@H](NC(=O)OC(C)(C)C)COC/C=C/c1cc3c(nccc3cc1OC)O2)C(=O)NS(=O)(=O)C1CC1 [GP205, potassium tert-butyl N-[(3R,5S,8S,11S,15E)-8-cyclohexyl-5-{[(1R,2S)-1-[(cyclo-propanesulfonyl)carbamoyl]-2-ethenylcyclopropyl]carbamoyl}-18-methoxy-7,10-dioxo-2,13-dioxa-6,9,23-triazatetracyclo[15.6.2.13,6.020,24]hexacosa-1(23),15,17(25),18,20(24),21-hexaen-11-yl] carbamate monohydrate]
IC50 [2]: 4 nM
Accuracy [3, 10]: 2.8%
Measured Conc. [3, 10]: 5.14 ng/mL
Accuracy [3, 11]: 0.6%
Measured Conc. [3, 11]: 100.63 ng/mL
Accuracy [3, 12]: −0.2%
Measured Conc. [3, 12]: 3992.75 ng/mL
Accuracy [3, 13]: 1.8%
Measured Conc. [3, 13]: 5.09 ng/mL
Accuracy [3, 14]: 3.3%
Measured Conc. [3, 14]: 103.26 ng/mL
Accuracy [3, 15]: −0.3%
Measured Conc. [3, 15]: 3987.91 ng/mL
AUC relative to MK-1220 (fold higher) [4]: ~11 fold
Cmax relative to MK-1220 (fold higher) [4]: about 2 fold
Time of maximum plasma drug concentration ([4]; both): about 6 h
VD [5]: 0.31 ± 0.12 L
Accuracy ([6]; 5 ng/mL): −5.5%
Measured Conc. ([6]; 5 ng/mL): 4.73 ng/mL
Accuracy ([6]; 100 ng/mL): −5.1%
Measured Conc. ([6]; 100 ng/mL): 94.90 ng/mL
Accuracy ([6]; 4000 ng/mL): −1.9%
Measured Conc. ([6]; 4000 ng/mL): 3925.86 ng/mL
Accuracy ([6]; 4 h, 5 ng/mL): −3.3%
Measured Conc. ([6]; 4 h, 5 ng/mL): 4.84 ng/mL
Accuracy ([6]; 4 h, 100 ng/mL): −1.6%
Measured Conc. ([6]; 4 h, 100 ng/mL): 98.39 ng/mL
Accuracy ([6]; 4 h, 4000 ng/mL): −2.9%
Measured Conc. ([6]; 4 h, 4000 ng/mL): 3884.71 ng/mL
Accuracy ([6]; 24 h, 5 ng/mL): −4.2%
Measured Conc. ([6]; 24 h, 5 ng/mL): 4.79 ng/mL
Accuracy ([6]; 24 h, 100 ng/mL): −3.9%
Measured Conc. ([6]; 24 h, 100 ng/mL): 96.13 ng/mL
Accuracy ([6]; 24 h, 4000 ng/mL): −2.4%
Measured Conc. ([6]; 24 h, 4000 ng/mL): 3904.44 ng/mL
Accuracy ([6]; 40 days, 5 ng/mL): −7.7%
Measured Conc. ([6]; 40 days, 5 ng/mL): 4.61 ng/mL
Accuracy ([6]; 40 days, 100 ng/mL): −7.2%
Measured Conc. ([6]; 40 days, 100 ng/mL): 92.84 ng/mL
Accuracy ([6]; 40 days, 4000 ng/mL): −4.7%
Measured Conc. ([6]; 40 days, 4000 ng/mL): 3812.43 ng/mL
concentration at 1 h ([7]; po, 2.5 mg/kg): 716 ng/mL
bioavailability ([7]; both): 34%
AUC ([7]; both, po, 2.5 mg/kg): 64300 ng·h/mL
AUC(0-inf) ([7]; both, po, 2.5 mg/kg): 70100 ng·h/mL
Cmax ([7]; both, po, 2.5 mg/kg): 4260 ± 400 ng/mL
MRT ([7]; both, po, 2.5 mg/kg): 19.4 ± 3.22 h
Tmax ([7]; both, po, 2.5 mg/kg): 6.3 ± 0.8 h
half-life ([7]; both, po, 2.5 mg/kg, t1/2): 12.4 ± 1.51 h
AUC ([7]; both, po, 5 mg/kg): 122000 ng·h/mL
AUC(0-inf) ([7]; both, po, 5 mg/kg): 135000 ng·h/mL
Cmax ([7]; both, po, 5 mg/kg): 6780 ± 750 ng/mL
MRT ([7]; both, po, 5 mg/kg): 22.2 ± 2.18 h
Tmax ([7]; both, po, 5 mg/kg): 6.3 ± 1.5 h
half-life ([7]; both, po, 5 mg/kg, t1/2): 13.9 ± 1.48 h
AUC ([7]; both, po, 10 mg/kg): 176000 ng·h/mL
AUC(0-inf) ([7]; both, po, 10 mg/kg): 205000 ng·h/mL
Cmax ([7]; both, po, 10 mg/kg): 9410 ± 583 ng/mL
MRT ([7]; both, po, 10 mg/kg): 25.6 ± 3.48 h
Tmax ([7]; both, po, 10 mg/kg): 6.3 ± 0.8 h
half-life ([7]; both, po, 10 mg/kg, Elimination half time (t1/2)): 12.4 to 17.2 h
half-life ([7]; both, po, 10 mg/kg, t1/2): 17.2 ± 2.73 h
AUC [8]: 66600 ng·h/mL
AUC(0-inf) [8]: 75200 ng·h/mL
C0 [8]: 9510 ± 442 ng/mL
MRT [8]: 20.8 ± 3.41 h
clearance [8]: 0.333 mL/min/kg
half-life [8]: 16.3 ± 2.99 h

IC50 ([2]; NS3 enzyme, genotype 1b HCV, in vitro, read-out: IC50): 11 nM
SMILES: C=C[C@@H]1C[C@]1(NC(=O)[C@@H]1C[C@@H]2CN1C(=O)[C@H](C1CCCCC1)NC(=O)OCC(C)(C)CCCc1cc3c(nccc3cc1OC)O2)C(=O)NS(=O)(=O)C1CC1 [MK-1220]
t1/2 [9]: about 6 h

IC50 [2]: 95 nM
SMILES: CCC[C@H](NC(=O)[C@@H]1[C@H]2CCC[C@H]2CN1C(=O)[C@@H](NC(=O)[C@@H](NC(=O)c1cnccn1)C1CCCCC1)C(C)(C)C)C(=O)C(=O)NC1CC1 [telaprevir]
